Read-outs that look alike come from different tables or passages of the source.
How the values were obtained:
RAW 264.7 cells [1] = test system: RAW 264.7 cells
Protocol: (§1) RAW 264.7 cells were seeded at a density of 2×10^4/well on a 6-well plate. After 24 hours, replacement was conducted with DMEM medium containing 0.5% FBS. The cells were treated with 50 μM of each of fluorescence (rhodamine)-labeled peptides of SEQ ID NOS: 1, 5 and 6. After 20 minutes, the cells were fixed and observed with a confocal microscope.

IL-6 = IL-6 expression by ELISA in palmitic acid-treated HepG2 cells; type: cell-based; conditions: HepG2, peptide 200 μM 2 hours, then palmitic acid 200 μM 24 hours, medium, FIG. 4
Protocol: HepG2 cells were plated at a density of 70% on a 6-well plate. After 16 hours, the cells were starved using DMEM medium containing 0.5% FBS for 2 hours. The cells were treated with a medium containing each of the peptides of SEQ ID NOS: 1 to 6 at a concentration of 200 μM for 2 hours, and were further treated with palmitic acid at a concentration of 200 μM to induce an inflammatory response for 24 hours. Each medium was collected, and the level of expression of IL-6, an inflammatory cytokine, was detected with an ELISA kit (R&D, Minneapolis, Minn., USA).

RAW 264.7 cells [2] = experiment: cell permeability of rhodamine-labeled peptides by confocal microscopy; conditions: RAW 264.7, rhodamine-labeled peptide 50 μM, 20 minutes, FIG. 3
Protocol: as §1

Sequence | cell permeability (fluorescence in the cells) (RAW 264.7 cells [1]) | expression level of IL-6 (IL-6) | cell permeability (fluorescence in the cells) (RAW 264.7 cells [2])
AESPLTNRGWNPGKCSTRGRKCCRRKK [SEQ ID NO: 6] | excellent cell permeability | lowest IL-6 expression level | –
GKCSTRGRKCCRRKK [SEQ ID NO: 5] | – | – | excellent cell permeability

Reference: US11384120B2, “Peptide capable of binding to biomarker for inflammatory and metabolic diseases, and use thereof” (NIBEC CO., LTD., priority 2019, dated 2022)
